In patent US20110112057A1, “Sequential administration of 20,20,21,21,21-pentafluoro-17-hydroxy-11Beta-[4-(hydroxyacetyl)phenyl]-19-nor-17Alpha-pregna-4,9-dien-3-one and one or more progestogens for the treatment of gynaecological disorders” (BAYER SCHERING PHARIMA AKTIENGESELL SCHAFT, priority 2008, published 2011):
Each block holds one compound with its values, some of them ahead of it.

Experiments:
[1] = test system: women of reproductive age; assay: randomised study of sequential treatment cycles with progesterone receptor antagonist followed by a progestogen; type: in vivo
Description: Women of reproductive age are treated in a randomised study sequentially in two treatment cycles with 20,20,21,21,21-pentafluoro-17-hydroxy-11β-[4-(hydroxyacetyl)phenyl]-19-nor-17α-pregna-4,9-dien-3-one. For this purpose, 20,20,21,21,21-pentafluoro-17-hydroxy-11β-[4-(hydroxyacetyl)phenyl]-19-nor-17α-pregna-4,9-dien-3-one is administered to the women in each case for 84 days with a daily dose of between about 1 mg and about 50 mg, followed by intake of a progestogen over a period of about 10 to 14 days. This complete treatment cycle is repeated once.

[2] = test system: endometrium of patients with symptomatic uterine leiomyomata; details: after use for 3 months (Williams 2007); cited from earlier work
[3] = test system: healthy, tube-ligated women; assay: randomised study on the effect of lonaprisan in healthy, tube-ligated women; type: in vivo
Description: 36 healthy, tube-ligated women from 24 to 43 years of age were subjects in a randomised study on the effect of lonaprisan. For this purpose, the women were divided into three groups: 7 women received placebo, 14 women 1 mg of lonaprisan and 15 women 10 mg of lonaprisan over a period of 3 months, once a day.

[4] = 1 mg or 10 mg lonaprisan once a day over 3 months, not observed in placebo group

SMILES: C[C@]12C[C@H](c3ccc(C(=O)CO)cc3)C3=C4CCC(=O)C=C4CC[C@H]3[C@@H]1CC[C@@]2(O)C(F)(F)C(F)(F)F [20,20,21,21,21-pentafluoro-17-hydroxy-11β-[4-(hydroxyacetyl)phenyl]-19-nor-17α-pregna-4,9-dien-3-one]
- bleeding pattern during the treatment phase ([1]; 84 days, daily dose about 1 mg to about 50 mg): amenorrhoea or a greatly reduced bleeding
- bleeding after sequential treatment with the progestogen ([1]; 84 days, daily dose about 1 mg to about 50 mg, followed by a progestogen for about 10 to 14 days, cycle repeated once): menstrual bleeding following administration of the progestogen
- endometrial biopsies: persistent changes in the endometrium ([1]; after completion of each treatment cycle): no persistent changes in the endometrium

SMILES: COC[C@]1(OC)CC[C@H]2[C@@H]3CCC4=CC(=O)CCC4=C3[C@@H](c3ccc(/C=N/O)cc3)C[C@@]21C [asoprisnil]
- endometrial pattern diagnosed [2]: non-physiological secretory effect
- endometrial vessels [2]: thickening of the smooth muscle cell layer surrounding the endometrial vessels

- menstrual bleeding after discontinuation ([3]; after discontinuation of lonaprisan): spontaneous return of menstrual bleeding
- endometrial biopsies: persistent changes in the endometrium ([3]; after the first menstrual bleeding after completion of the treatment phase): no persistent changes in the endometrium
SMILES: CC(=O)c1ccc([C@H]2C[C@@]3(C)[C@@H](CC[C@@]3(O)C(F)(F)C(F)(F)F)[C@@H]3CCC4=CC(=O)CCC4=C32)cc1 [lonaprisan, 11β-(4-acetylphenyl)-20,20,21,21,21-pentafluoro-17-hydroxy-19-nor-17α-pregna-4,9-dien-3-one]
- bleeding pattern [3, 4]: amenorrhoea or a greatly reduced bleeding
- effect on ovulation [3, 4]: inhibition of ovulation
